In US10421973B2, “Chemically inducible cucumber mosaic virus protein expression system” (THE REGENTS OF THE UNIVERSITY OF CALIFORNIA, priority 2006, dated 2019):
Where “and” joins values, the source holds several entries; their conditions need not be identical. Identical values can stand only once. Like-named read-outs stand apart in the source and are kept apart here.

Experiments:
[1] = test system: transgenic plant cell cultures; experiment: Effect of stabilizing agents and protease inhibitors on rAAT production in transgenic plant cell cultures; format: cell-based, Nicotiana benthamiana
Procedure: The effect of stabilizing agents (bacitracin, PVP, BSA, Pluronic F-68, and mannitol) and protease inhibitors (2-mercaptoethylamine-HCl, AEBSF, benzamidine-HCl and EDTA) on the rAAT production in transgenic plant cell cultures was also evaluated.

[2] = test system: CMViva inducible cell cultures; experiment: Effect of inducer concentration on rAAT production, CMViva inducible cell cultures; format: cell-based, Nicotiana benthamiana
Procedure: (§1) The inducer, 17-beta-estradiol, dissolved in DMSO, was added to cultures of XVE and CMViva transgenic cell lines at a specific time after inoculation to start induction. The final concentration of DMSO was not higher than 0.3%.
(§2) For inducible systems, the correct inducer concentration and timing of application are critical to maximize recombinant protein expression. Two inducible expression systems were evaluated for rAAT protein production. The concentration of inducer (COI) required for inducing maximum rAAT production and the close-response of inducible plant cell cultures were determined. Inducer was added to the XVE and CMViva cell suspensions 10 days after inoculation (100 mL cell culture in a 250 mL Erlenmeyer flask, 140 rpm and 25° C. under ambient light) to a final concentration of 0, 0.1, 0.5, 1, 2.5, 5, 10, 25, 50 or 100 μM. Samples were harvested 8 days after induction and total and functional extracellular rAAT were determined by ELISA (FIG. 8). In the absence of inducer, rAAT was not detected in XVE or CMViva cultures. There was a dose-dependent response in rAAT expression in XVE and CMViva cell cultures with added inducer, and both inducible systems allowed regulation of rAAT expression at inducer concentrations between 0.1 and 10 μM. Above approximately 10 μM estradiol, rAAT production leveled off in both XVE and CMViva systems. The CMViva system first responded at 0.1 μM while XVE required 2.5 μM. Higher extracellular rAAT productivity was produced in CMViva at a relatively low inducer concentration (0.5 μM) compared with that in XVE system (5 μM) and CMViva produced more functional rAAT at all inducer concentrations.

[3] = test system: XVE inducible cell cultures; experiment: Effect of inducer concentration on rAAT production, XVE inducible cell cultures; format: cell-based, Nicotiana benthamiana
Procedure: as §1
as §2, with “The CMViva system first responded at 0.1 μM while XVE required 2.5 μM. Higher extracellular rAAT productivity was produced in CMViva at a relatively low inducer concentration (0.5 μM) compared with that in XVE system (5 μM) and CMViva produced more functional rAAT at all inducer concentrations.” left out

N. benthamiana cultures = experiment: Effects of estradiol on N. benthamiana cultures (toxicity, growth); format: cell-based, Nicotiana benthamiana; details: at up to 100 μM
Procedure: as §2, with “Higher extracellular rAAT productivity was produced in CMViva at a relatively low inducer concentration (0.5 μM) compared with that in XVE system (5 μM) and CMViva produced more functional rAAT at all inducer concentrations.” left out

XVE system = details: cited from earlier work
[4] = test system: viral amplicon plant cell cultures; details: cited from earlier work
[5] = test system: proteases in the cell cultured medium; experiment: Effect of protease inhibitors and additives on human AAT degradation in cell-free CMViva conditioned medium; format: biochemical, Nicotiana benthamiana; details: 10 mM in 7 day old cell-free CMViva conditioned medium
Procedure: For the investigation of human AAT stability in plant cell cultures, human AAT was added to the cell-free conditioned medium to a final concentration of 2 mg/L and distributed into 6-well-plates. The cell-free conditioned medium was prepared by centrifuging and filtering (through a 0.22 μm filter) the plant cells from 7 day old CMViva cell cultures (pH 5.1). Various protease inhibitors including 2-mercaptoethylamine-HCl (aminopeptidase inhibitor), AEBSF (serine and cysteine proteases inhibitor), benzamidine-HCl (serine protease inhibitor), and EDTA (a metal ion chelator and metalloproteinase inhibitor) were added to the conditioned medium to a final concentration of 10 mM to assess their ability to retard the degradation of human AAT. In another treatment, the conditioned medium was also heated (in boiling water for 30 minutes) or the medium pH was adjusted (from original pH 5.1 to 6.4˜6.6) prior to the addition of human AAT to investigate the human AAT stability. The 6-well-plates containing human AAT in various conditioned medium (4 mL/well) were incubated on an orbital shaker at 140 rpm and 25[…] under ambient light. Samples were taken daily and stored at −80° for further ELISA, western blotting and band shift analysis.

N. benthamiana leaves = experiment: Induction method study, total rAAT ELISA in intact or detached N. benthamiana leaves (CMViva + p19); format: in vivo, Nicotiana benthamiana
Procedure: (§3) Non-transgenic/wildtype N. benthamiana seedlings were grown from seed in soil-filled 10-cm pots. Seedlings were transplanted to individual 10-cm pots until plants were 10 to 15 cm in height, at which time plants were ready for infiltration. All plants were grown in a greenhouse with a 16-hour photoperiod and a temperature range of 18° C. (nighttime low) to 30° C. (daytime high). To prepare for evaluation of protein expression in detached leaves, plant leaves were cut at the petiole and stored dry in unsealed plastic bags for one hour before infiltration to simulate a situation where plants would be harvested from a field and transported to a facility for infiltration.
(§4) A. tumefaciens cells containing the appropriate plasmids were grown for 24 hours in 2 mL of Luria-Bertani (LB) broth containing appropriate selection antibiotics. Approximately 0.5 mL was then transferred to 25 mL of LB broth supplemented with 10 μL of 100 mM acetosyringone (3′, 5′-dimethoxy-4′-hydroxyacetophenone) (Aldrich Chemicals, Milwaukee, Wis.) and 0.5 ml of 1 M 2-(4-morpholino) ethanesulfonic acid (MES) buffer (pH 5.6), and grown overnight at 28° C. with shaking until the cell density (optical density, OD600) reached 1.0 absorbance units. Cells were harvested by centrifugation at 2600 g, resuspended in 10 mL of sterile de-ionized water, and the cell density was adjusted to 1.0 absorbance units. Five milliliters of the A. tumefaciens cell suspension for CMViva was mixed with 5 mL of A. tumefaciens cells containing the p35S:p19 plasmid, and then supplemented with magnesium chloride to reach a final concentration of 10 mM and acetosyringone to 150 µM, and incubated at room temperature for five hours. Bacterial suspensions were then pressure infiltrated onto the abaxial side of either intact or detached N. benthamiana leaves using a 3-mL sterile syringe without a needle at three to four points to sufficiently cover the entire leaf (approximately 1 mL of bacterial suspension per 0.5 g fresh weight of tissue). No A. tumefaciens solution was applied to plants selected as healthy control plants.
(§5) Intact plants that had been infiltrated were grown in the greenhouse for the duration of the experiment. Leaves that had been detached were stored in a humidity chamber following infiltration to maintain the health of the plant material. The humidity chamber was prepared by soaking 400 g of Perlite soil additive (E.B. Stone) in 1.5 L of de-ionized water. Excess water was decanted and the saturated Perlite was packed to form a 3-cm thick bed on the bottom of an 11.4 L rectangular Tupperware container. Plant leaves were then placed 7 cm above the Perlite bed on top of racks, and the chamber was then sealed and placed in the dark at 21° C. The humidity chamber was prepared five hours before infiltration to ensure a humid environment upon introduction of the plant leaves.
(§6) Twelve hours after infiltration, an induction solution composed of 50 μM 17-β-estradiol (Sigma Inc., St. Louis, Mo.) in 0.05% Tween 20 was applied to all infiltrated N. benthamiana leaves using either cotton tipped applicators to both sides of the leaves or a 3-mL sterile syringe without a needle pressure injected onto the abaxial side of the leaves. To evaluate the effect of multiple inducer applications, the induction solution was applied to half of the total number of infiltrated leaves in the same manner (directly after sampling) at 2-day (48±1 h) increments after the initial induction. No inducer solution was applied at any time to the healthy control plants.
(§7) Plant leaves were sampled on the infiltrated/induced areas 2 days (48±1 h) post-induction (60±1 h post-infiltration) by collecting two 7-mm diameter discs at various locations on each leaf and combining the discs to approximate an average leaf sample. Three leaves from different plants were sampled for analysis of intact plant leaves and four leaves were used for analysis of detached plant leaves. […]

[6] = test system: porcine pancreatic elastase (PPE); experiment: Induction method study, functional rAAT ELISA in intact or detached N. benthamiana leaves (CMViva + p19); format: biochemical
Procedure: as §3, §4, §5, §6, §7

[7] = inducer added 10 days after inoculation, sampled 8 days after induction
[8] = transgenic plant cell cultures, data not shown
[9] = detached leaves, single pressure injection
[10] = intact leaves, single pressure injection
[11] = intact leaves, single topical application, four days after induction

## O=C(O)CN(CCN(CC(=O)O)CC(=O)O)CC(=O)O [EDTA]
[1]
  effect on total and functional rAAT production: no significant improvement

## C[C@]12CC[C@@H]3c4ccc(O)cc4CC[C@H]3[C@@H]1CC[C@@H]2O [estradiol, 17-β-estradiol]
[2]; flask cultures
  inducer concentration giving higher extracellular rAAT productivity: 0.5 µM
[2]; [7]
  estradiol concentration at which the system first responded (detectable rAAT): 0.1 µM
[2]; lowest concentration tested
  lowest estradiol concentration with detectable rAAT expression: 100 nM
[3]; flask cultures
  inducer concentration giving higher extracellular rAAT productivity: 5 µM
[3]; [7]
  estradiol concentration at which the system first responded (detectable rAAT): 2.5 µM
N. benthamiana cultures
  detrimental, toxic or growth-inhibiting effects on cultures: no obvious detrimental, toxic, or growth-inhibiting effects
XVE system; plants, XVE system
  estradiol concentration giving detectable GFP transcripts: 8 nM
XVE system; whole plants
  estradiol concentration at saturation of GFP transcripts: around 5 μM
[4]; viral amplicon plant cell cultures
  estradiol concentration giving GFP fluorescence: 10 nM
[4]; viral amplicon system in plant cell culture
  estradiol concentration at saturation of GFP fluorescence: 0.1 to 1 µM

## Cl.NCCS [2-mercaptoethylamine-HCl]
[5]
  effect of protease inhibitor on human AAT degradation: slightly inhibit human AAT degradation
[1]; [8]
  effect on total and functional rAAT production: no significant improvement

## rAAT: recombinant α1-antitrypsin, a human blood protein, produced in N. benthamiana
N. benthamiana leaves; detached leaves, multiple topical applications
  maximum total rAAT: 3.5±0.15 % of TSP
N. benthamiana leaves; [9]
  total rAAT: 2.4±0.18 % of TSP
N. benthamiana leaves; detached leaves, single topical application
  maximum total rAAT: 2.5±0.08 % of TSP
N. benthamiana leaves; intact leaves, multiple pressure injections, 6 days after induction
  maximum total rAAT: 5.8±0.46 % of TSP
N. benthamiana leaves; intact leaves, pressure injection
  increase of total rAAT, multiple compared to single treatment: 57%
N. benthamiana leaves; [10]
  total rAAT: 3.7±0.31 % of TSP
N. benthamiana leaves; [11]
  total rAAT: 1.4±0.17 % of TSP
N. benthamiana leaves; intact leaves, single topical application, six days after induction
  maximum total rAAT: 1.9±0.15 % of TSP
N. benthamiana leaves; intact leaves, topical application
  increase of total rAAT, multiple compared to single treatment: 120%
N. benthamiana leaves; intact plants
  more total rAAT, single pressure injection compared to single topical application: 95%
N. benthamiana leaves; single topical application
  maximum total rAAT in detached leaves above that in intact leaves: 0.6 % of TSP
[6]; detached leaves
  functional rAAT higher with single pressure injection than single topical application: 80%
  increase of maximum functional rAAT, inducer applied topically every two days: 1.8 fold
[6]; detached leaves, injection method, two days after induction
  maximum percentage of functional rAAT to total rAAT: 85-87%
[6]; detached leaves, multiple topical applications, four days post induction
  functional rAAT: 1.3±0.05 % of TSP
[6]; [9]
  functional rAAT: 1.3±0.06 % of TSP
[6]; detached leaves, single topical application, four days post induction
  functional rAAT: 0.71±0.04 % of TSP
[6]; detached leaves, topical application, two days after induction
  maximum percentage of functional rAAT to total rAAT: 55-65%
[6]; intact leaves
  increase of maximum functional rAAT, multiple pressure injections compared to single topical application: up to 3 fold
[6]; intact leaves, eighth day after induction, any of the treatments
  percentage of total rAAT that is functional: less than 15%
[6]; intact leaves, multiple pressure injections
  maximum functional rAAT: 2.4±0.09 % of TSP
[6]; intact leaves, multiple topical applications
  maximum functional rAAT: 1.6±0.08 % of TSP
[6]; intact leaves, pressure injection, two days after induction
  percentage of total rAAT that is functional: 83-90% and > 85%
[6]; [10]
  maximum functional rAAT: 1.8±0.09 % of TSP
[6]; [11]
  maximum functional rAAT: 0.80±0.04 % of TSP
[6]; intact leaves, six days after induction, single induction treatment
  functional rAAT still present as % of the maximum level: less than 40%
[6]; intact plants
  more functional rAAT, single pressure injection compared to single topical application: 125%
[6]; multiple topical applications, four days post induction
  functional rAAT in detached leaves less than in intact leaves: 0.3 % of TSP
[6]; single topical application, four days post induction
  functional rAAT in detached leaves less than in intact leaves: 0.09 % of TSP

## Cl.N=C(N)c1ccccc1 [benzamidine-HCl]
[1]; [8]
  effect on total and functional rAAT production: no significant improvement
